The test system of one data set is Danio rerio embryos. Put plainly: Fish Embryo Acute Toxicity (FET) test, OECD No. 236. To be noted: for toxicity for zebrafish embryos and larvae (in words): FET test, based on LC50; for heart rate vs negative (E3) and solvent (1% DMSO) controls: zebrafish larvae, 96 h; for percentage of non-lethal morphological abnormalities: zebrafish larvae 96 hpf. Here is the method:
Wild-type AB strain zebrafish (Danio rerio) were housed in the Experimental Medicine Centre of Medical University of Lublin (Lublin, Poland), where all the experimental procedures on embryos and larvae were carried out. The animals were kept on a recirculating water supply at 26 ± 1 °C and a 10/14 dark–light cycle, and they were fed with artemia and commercial feed. Danio rerio embryos were obtained from females between 4 and 15 months of age. […] In order to avoid genetic bias in the study, eggs were randomly collected from at least three breeding groups, rinsed, and placed in Petri dishes in the cultured medium, which for Danio rerio is E3 solution. […] In accordance with the legislation of the European Union and Poland, the experiments performed on the earliest life-stages of Danio rerio until 120 h post-fertilization (120 hpf), not defined as protected, are not subject to regulations for animal experimentation.
They address the testing of chemicals using the Fish Embryo Acute Toxicity (FET) test with the species Danio rerio.
Immediately after fertilization, eggs were placed in sterile 24-well plates and exposed for 96 h to at least five concentrations of the test chemical, ranging from 1 to 500 µM and prepared ex tempore on each day of exposure, according to the principle of one egg per well and one concentration per plate. In each plate, 20 wells were filled with the solutions of the tested substance, and 4 wells of the last column were a negative internal control with E3 medium. Each well was filled with 2 mL of solution. Positive control plates were also prepared according to this scheme with 4 mg/L of 3,4-dichloroaniline (Sigma-Aldrich, Poznań, Poland) and a negative control with E3, and a negative solvent control with 1% DMSO, which was used as a solvent for the tested substances. At four time points, microscopic observations were made every 24 h. As indicators of mortality (so-called terminal observations; when at least one of these occurs, embryonic death is declared), the following were recorded: the coagulation of embryos, a lack of somite formation, a lack of detachment of the tail from the yolk sac and a lack of a heartbeat, which was observed from the 48th hour of the study. To confirm the absence of a heartbeat, a microscopic observation was conducted at 80× magnification for one minute. Then, the solutions of the tested chemicals, to maintain their constant composition throughout the test, were replaced with fresh ones, and the plates were incubated for another 24 h in an incubator at 26 ± 1 °C. […] In addition, a quantitative and qualitative summary of the morphological and physiological abnormalities that occurred in the tested Danio rerio embryos and larvae was also made. These included yolk sac edema, pericardial edema, spinal flexure, head deformities, tail deformities, developmental delay defined as a lack of hatching success for 96 hpf larvae, and also bradycardia.
Regression analysis was performed with Excel, and the above-mentioned values were obtained from the linear type of regression analysis. […] The results obtained from the heart rate study of 96 hpf zebrafish larvae were subjected to statistical analysis using one-way analysis of variance (ANOVA) and a post hoc Bonferroni test. The significance level was taken as p < 0.05.

Data set [1] deals with Bordetella bronchiseptica ATCC 4617. In words: Broth microdilution MIC/MBC. The class given is cell-based. To be noted: for MIC / MBC: ATCC4617. An outline of the steps:
(§1)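 Compounds were dissolved in DMSO and tested against reference strains, including Gram-positive bacteria and Candida spp., following EUCAST and CLSI broth microdilution procedures. Two-fold serial dilutions covered final concentrations from 1000 to 0.488 µg/ml, in RPMI 1640/MOPS for fungi and Mueller-Hinton broth for bacteria. Each strain was added as a 0.5 McFarland suspension.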

Data set [2] deals with Bacillus cereus ATCC 10876. In words: Broth microdilution MIC/MBC. The class given is cell-based. As to conditions: for MBC: ATCC10876. In outline:
as §1

For data set [3], the system named is Enterococcus faecalis ATCC 29212. Put plainly: Broth microdilution MIC/MBC. As to conditions: for MIC: ATCC29212, read-out: MIC; for MBC: ATCC29212, read-out: MBC. The class given is cell-based. In outline: as §1
The subject of data set [4] is Escherichia coli ATCC 25922. In words: Broth microdilution MIC/MBC. The class given is cell-based. To be noted: for MIC / MBC: ATCC25922. In outline:
as §1

In data set [5] the test system is Klebsiella pneumoniae ATCC 13883. Put plainly: Broth microdilution MIC/MBC. To be noted: for MIC / MBC: ATCC13883. The class given is cell-based. An outline of the steps:
as §1

[6] abbreviates: zebrafish, 500 µM (150.62 mg/L).

Converted amounts (≈) assume the structure as drawn. “Also recorded” adds a separate entry of the source. Like-named read-outs stand apart in the source and are kept apart here.

Consider `O=C(N/N=C/c1ccccc1Br)c1ccc(O)cc1O` [Compound 23, N-[(2-bromophenyl)methylidene]-2,4-dihydroxybenzohydrazide], for which the “toxicity for zebrafish embryos and larvae (in words)” value (from here on “toxicity”) with Danio rerio embryos was “quite toxic”. In addition, in the data set with Danio rerio embryos (zebrafish embryos and larvae, 100 µM (35.52 mg/L)), the “percentage of yolk sac edema” value amounted to 80%. In addition, the MIC in data set [1] was more than 1000 µg/mL; in data set [2] (ATCC10876, read-out: MIC) it was more than 1000 µg/mL; in data set [3] it was more than 1000 µg/mL; in data set [4] it was more than 1000 µg/mL; in data set [5], more than 1000 µg/mL.
Take `O=C(N/N=C/c1cc(I)cc(I)c1O)c1ccc(O)cc1O` [Compound 18, 2,4-dihydroxy-N-[(2-hydroxy-3,5-diiodophenyl)methylidene]benzohydrazide]: the MBC/MIC is more than 2 in data set [1]; 4 in data set [2]; 4 in data set [3]; more than 2 in data set [4]; more than 2 in data set [5]. The MBC in data set [1] is more than 1000 µg/mL; in data set [2], 15.6 µg/mL (≈ 0.0298 mM); in data set [3] it was 15.6 µg/mL (≈ 0.0298 mM); in data set [4], more than 1000 µg/mL; in data set [5], more than 1000 µg/mL. The MIC stood at 500 µg/mL (≈ 0.954 mM) in data set [1]; 3.91 µg/mL (≈ 0.00746 mM) in data set [2]; 3.91 µg/mL (≈ 0.00746 mM) in data set [2] (ATCC10876, read-out: MIC); 3.91 µg/mL (≈ 0.00746 mM) in data set [3]; 500 µg/mL (≈ 0.954 mM) in data set [4]; 500 µg/mL (≈ 0.954 mM) in data set [5].
With `CCCc1ccc(/C=N/NC(=O)c2ccc(O)cc2O)cc1` [Compound 13, 2,4-dihydroxy-N-[(4-propylphenyl)methylidene]benzohydrazide], the MBC/MIC in data set [1], in data set [2], in data set [3], in data set [4] and in data set [5] was more than 1 each time. Further, the MBC in data set [1], in data set [2], in data set [3], in data set [4] and in data set [5] was more than 1000 µg/mL each time. In addition, the minimal inhibitory concentration (MIC) in data set [1] was 1000 µg/mL (≈ 3.35 mM); in data set [2] (ATCC10876, read-out: MIC), 1000 µg/mL (≈ 3.35 mM); in data set [3] it was 1000 µg/mL (≈ 3.35 mM); in data set [4], 1000 µg/mL (≈ 3.35 mM); in data set [5], 1000 µg/mL (≈ 3.35 mM).
Take `O=C(N/N=C/c1ccc([N+](=O)[O-])cc1)c1ccc(O)cc1O` [Compound 21, 2,4-dihydroxy-N-[(4-nitrophenyl)methylidene]benzohydrazide]: in the data set on Danio rerio embryos, the “toxicity” value was “moderate toxicity”. The “percentage of development delay” value with Danio rerio embryos (setting [6]) worked out at 10%. In addition, the “percentage of tail malformation” value in the data set with Danio rerio embryos (setting [6]) came out at 55%. Moreover, the minimum inhibitory concentration (MIC) in data set [1] is more than 1000 µg/mL; in data set [2] (ATCC10876, read-out: MIC), 500 µg/mL (≈ 1.66 mM); in data set [3] it was 500 µg/mL (≈ 1.66 mM); in data set [4], more than 1000 µg/mL; in data set [5] it was more than 1000 µg/mL. The results for the MBC/MIC in data set [2] and in data set [3] were more than 2 and more than 4, respectively. Further, the minimum bactericidal concentration (MBC) in data set [2] and in data set [3] was more than 1000 µg/mL in each case.
Regarding `O=C(N/N=C/c1ccccc1F)c1ccc(O)cc1O` [Compound 24, N-[(2-fluorophenyl)methylidene]-2,4-dihydroxybenzohydrazide], in the data set with Danio rerio embryos, the “toxicity” value was “nontoxic”. Besides, the “heart rate vs negative (E3) and solvent (1% DMSO) controls” value was “no changes” with Danio rerio embryos (50 µM (13.71 mg/L)); “decrease in heartbeat (bradycardia)” in the data set with Danio rerio embryos (100 µM (27.42 mg/L), p < 0.01); “the reduction was very statistically significant” with Danio rerio embryos (500 µM (137.12 mg/L), p < 0.001). Further, the “percentage of pericardial edema” value with Danio rerio embryos (zebrafish, 100 µM (27.42 mg/L)) amounted to 65%; in the data set with Danio rerio embryos (zebrafish, 500 µM (137.12 mg/L)), 85%. The minimum inhibitory concentration (MIC) was more than 1000 µg/mL in data set [1]; 1000 µg/mL (≈ 3.65 mM) in data set [2] (ATCC10876, read-out: MIC); 1000 µg/mL (≈ 3.65 mM) in data set [3]; more than 1000 µg/mL in data set [4]; more than 1000 µg/mL in data set [5]. The MBC/MIC in data set [2] and in data set [3] was more than 1 in each case. Besides, the minimum bactericidal concentration (MBC) in data set [2] and in data set [3] was more than 1000 µg/mL each time.
For the compound `O=C(N/N=C/c1ccccc1[N+](=O)[O-])c1ccc(O)cc1O` [Compound 19, 2,4-dihydroxy-N-[(2-nitrophenyl)methylidene]benzohydrazide], in the data set on Danio rerio embryos, the “toxicity” value was “nontoxic; also recorded: negligible toxicity”. Also, the “percentage of non-lethal morphological abnormalities” value in the data set with Danio rerio embryos was not above 25%. The MBC/MIC in data set [1] is reported as more than 1; in data set [2], more than 4; in data set [3], more than 2; in data set [4] it was more than 1; in data set [5], more than 1. Also, the MBC in data set [1], in data set [2], in data set [3], in data set [4] and in data set [5] was more than 1000 µg/mL throughout. Further, the MIC in data set [1] is 1000 µg/mL (≈ 3.32 mM); in data set [2] (ATCC10876, read-out: MIC), 250 µg/mL (≈ 0.83 mM); in data set [3] it was 500 µg/mL (≈ 1.66 mM); in data set [4] it was 1000 µg/mL (≈ 3.32 mM); in data set [5] it was 500 µg/mL (≈ 1.66 mM).
Regarding `O=C(N/N=C/c1cccc([N+](=O)[O-])c1)c1ccc(O)cc1O` [Compound 20, 2,4-dihydroxy-N-[(3-nitrophenyl)methylidene]benzohydrazide], the “toxicity” value in the data set on Danio rerio embryos was “nontoxic”. The “percentage of non-lethal morphological abnormalities” value with Danio rerio embryos is recorded as not above 25%. Further, the minimal inhibitory concentration (MIC) in data set [1] was more than 1000 µg/mL; in data set [2] (ATCC10876, read-out: MIC), more than 1000 µg/mL; in data set [3], more than 1000 µg/mL; in data set [4] it was more than 1000 µg/mL; in data set [5] it was more than 1000 µg/mL.
In the case of `O=C(N/N=C/c1ccccc1Cl)c1ccc(O)cc1O` [Compound 22, N-[(2-chlorophenyl)methylidene]-2,4-dihydroxybenzohydrazide], the “toxicity” value in the data set on Danio rerio embryos is on record as “quite toxic”. In addition, the MIC in data set [1] is more than 1000 µg/mL; in data set [2] (ATCC10876, read-out: MIC) it was more than 1000 µg/mL; in data set [3], more than 1000 µg/mL; in data set [4], more than 1000 µg/mL; in data set [5], more than 1000 µg/mL.

These data come from PMC10743905, “Design, Synthesis, and In Vitro and In Vivo Bioactivity Studies of Hydrazide–Hydrazones of 2,4-Dihydroxybenzoic Acid” (International Journal of Molecular Sciences, 2023).
